Consider 19 compounds from US6706880B2 (Research Triangle Institute, priority 1990, dated 2004).

For data set [1], the system named is dopamine transporter. The format is binding. The conditions noted are these: ratio of IC50 values, Table II. An excerpt:
(§1) Illustrative in vitro assays for binding are described in Boja et al Ann. NY Acad. Sci. 654:282-291 (1992), which is incorporated herein by reference in its entirety. […] Alternatively, the compounds may be analyzed by their ability to inhibit reuptake of a labelled neurotransmitter in a sample, in particular, in synaptosomes.

For data set [2], the target named is dopamine transporter (UniProt P23977). The format is binding.
Excerpt: as §1

In data set [3] the target is norepinephrine transporter (UniProt Q9WTR4). As to the kind of experiment: Inhibition of [3H]nisoxetine radioligand binding at the norepinephrine transporter.
Excerpt: as §1

For data set [4], the target named is T1, serotonin transporter (Rattus norvegicus, UniProt P31652).
T1 construct: from tissue
T1 sequence (P31652 whole entry): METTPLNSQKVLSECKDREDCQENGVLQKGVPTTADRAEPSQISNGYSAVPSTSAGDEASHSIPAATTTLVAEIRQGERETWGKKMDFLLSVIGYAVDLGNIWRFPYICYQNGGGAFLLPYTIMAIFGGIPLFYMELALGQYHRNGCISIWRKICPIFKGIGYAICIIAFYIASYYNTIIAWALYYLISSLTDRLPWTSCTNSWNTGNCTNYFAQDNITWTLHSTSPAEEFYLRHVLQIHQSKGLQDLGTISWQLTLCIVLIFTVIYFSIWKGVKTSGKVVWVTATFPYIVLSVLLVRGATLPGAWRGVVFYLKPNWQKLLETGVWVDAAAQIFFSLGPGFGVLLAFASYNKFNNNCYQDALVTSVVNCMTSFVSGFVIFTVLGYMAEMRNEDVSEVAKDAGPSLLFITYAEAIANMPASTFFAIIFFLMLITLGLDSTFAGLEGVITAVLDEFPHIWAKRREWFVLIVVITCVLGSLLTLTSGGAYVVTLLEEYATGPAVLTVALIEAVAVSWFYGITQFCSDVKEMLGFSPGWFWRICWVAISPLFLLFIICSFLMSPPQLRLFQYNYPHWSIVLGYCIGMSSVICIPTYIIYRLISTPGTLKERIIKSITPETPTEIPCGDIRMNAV
As to the kind of experiment: Inhibition of [3H]paroxetine radioligand binding at the serotonin transporter.
Excerpt: as §1

Setting [5] is: read-out: DA IC50 for inhibition of radioligand binding, DA=[3H]WIN 35,428.
Where [6] appears, read: read-out: IC50 DA [3H]-WIN 35,428, Table II.
The mark [7] stands for this setting: read-out: IC50 NE [3H]-nisoxetine, Table II.
[8] abbreviates: read-out: NEN IC50 for inhibition of radioligand binding, NEN=[3H] nisoxetine.
The mark [9] stands for this setting: 5-HT=[3H] paroxetine, read-out: 5-HT IC50 for inhibition of radioligand binding.
The mark [10] stands for this setting: Table II, read-out: IC50 5-HT [3H]-paroxatine (converted).
[11] abbreviates: IC50 5-HT [3H]-paroxatine, Table II.
Where [12] appears, read: 5-HT IC50 for inhibition of radioligand binding, 5-HT=[3H] paroxetine.

Where a name gives a salt, the structure may show the parent alone. Read-outs that look alike come from different tables or passages of the source.

By IC50 is commonly meant the midpoint of a concentration-inhibition curve. The term melting point denotes the temperature of the solid-liquid transition.

Consider `Cc1ccc(C2CC3CCC(C2c2cc(C)no2)N3C)cc1.Cl` (stereo not drawn) [RTI-4229-171, 3β-(4-Methylphenyl)-2P-(3-methylisoxazol-5-yl)tropane Hydrochloride], for which the “5-HT/DA Ratio” value in data set [1] is listed as 4105. In addition, the “NE/DA Ratio” value in data set [1] was determined as 273. For the same compound, the IC50 in data set [2] (setting [5]) was 0.93 nM; in data set [2] (setting [6]) it was 0.93 nM; in data set [3] (setting [7]), 254 nM; in data set [3] (setting [8]) it was 254 nM; in data set [4] (setting [9]) it was 3820 nM; in data set [4] (setting [10]) it was 3820 nM.

`Cc1ccc([C@H]2C[C@@H]3CC[C@H]([C@H]2c2nn[nH]n2)N3C)cc1` [RTI-157, 3β-(4-Methylphenyl)-tropane-2β-tetrazole Hydrochloride]: the “5-HT/DA Ratio” value in data set [1] is 28. Moreover, the “NE/DA Ratio” value in data set [1] worked out at 21. Further, the IC50 in data set [2] (setting [6]) is 1560 nM; in data set [3] (setting [7]), 32500 nM; in data set [4] (setting [11]), 43600 nM.

`CN1[C@H]2CC[C@@H]1[C@@H](C#N)[C@@H](c1ccc(Cl)cc1)C2` [RTI-161, 3β-(4-Chlorophenyl)-tropane-2β-nitrile]: the melting point was > 220 °C (dec.). In data set [2] (read-out: IC50 DA [3H]-WIN 35,428, Table IV), the IC50 was 13.1 ± 0.78 nM. Further, the IC50 in data set [3] (read-out: IC50 NE [3H]-nisoxetine, Table IV) was found to be 2520 ± 253 nM. This compound registered a concentration for half-maximal inhibition (IC50) in data set [4] (IC50 5-HT [3H]-paroxetine, Table IV) of 1890 ± 134 nM.

Regarding `Cc1cc([C@H]2[C@@H](c3ccc(I)cc3)C[C@@H]3CC[C@H]2N3C)on1` [RTI-4229-180, 3β-(4-Iodophenyl)-2β-(3-methylisoxazol-5-yl)tropane Hydrochloride], the “NE/DA Ratio” value in data set [1] is listed as 93. In addition, the IC50 is 0.73 nM in data set [2] (setting [6]), 67.9 nM in data set [3] (setting [7]), 67.9 nM in data set [3] (setting [8]) and 36.4 nM in data set [4] (setting [11]).

For the compound `Cc1ccc([C@H]2C[C@@H]3CC[C@H]([C@H]2c2nnc(-c4ccccc4)o2)N3C)cc1` [RTI-4229-195, 3β-(4-Methylphenyl)-2β-(5-phenyl-1,3,4-oxadiazol-2-yl)-tropane Hydrochloride], in data set [1], the “5-HT/DA Ratio” value was 491. The “NE/DA Ratio” value in data set [1] is recorded as 28. Besides, the IC50 in data set [2] (setting [5]) was 47.5 nM; in data set [2] (setting [6]) it was 47.5 nM; in data set [3] (setting [7]), 1310 nM; in data set [3] (setting [8]) it was 1310 nM; in data set [4] (setting [12]), 22300 nM; in data set [4] (setting [11]) it was 23300 nM.

On to `Cc1ccc([C@H]2C[C@@H]3CC[C@H]([C@H]2c2ncc(-c4ccccc4)o2)N3C)cc1` [RTI-4229-178, 3β-(4-Methylphenyl)-2β-(5-phenyl-oxazol-2-yl)-tropane Tartrate], for which, in data set [1], the “5-HT/DA Ratio” value amounted to 48. Moreover, the “NE/DA Ratio” value in data set [1] is recorded as 19. Besides, the IC50 is 35.4 nM in data set [2] (setting [5]); 35.4 nM in data set [2] (setting [6]); 677 nM in data set [3] (setting [7]); 677 nM in data set [3] (setting [8]); 1700 nM in data set [4] (setting [12]); 1700 nM in data set [4] (setting [11]).

Consider `Cc1ccc([C@H]2C[C@@H]3CC[C@H]([C@H]2c2nnc(-c4ccccc4)s2)N3C)cc1` [RTI-4229-199, 3β-(4-Methylphenyl)-2β-(5-phenyl-1,3,4-thiadiazol-2-yl)-tropane Hydrochloride], for which the “5-HT/DA Ratio” value in data set [1] stood at 1434. In addition, the “NE/DA Ratio” value in data set [1] worked out at 677. The IC50 in data set [2] (setting [5]) was 35.9 nM; in data set [2] (setting [6]) it was 35.9 nM; in data set [3] (setting [7]), 24300 nM; in data set [4] (setting [12]), 51500 nM; in data set [4] (setting [11]) it was 51500 nM.

Turning to `CN1[C@H]2CC[C@@H]1[C@@H](c1ncc(-c3ccccc3)o1)[C@@H](c1ccc(Cl)cc1)C2` [RTI-4229-189, 3β-(4-Chlorophenyl)-2β-(5-phenyl-oxazol-2-yl)-tropane Tartrate], in data set [1], the “5-HT/DA Ratio” value came out at 57. The “NE/DA Ratio” value in data set [1] was 25. The IC50 in data set [2] (setting [5]) is 19.7 nM; in data set [2] (setting [6]) it was 19.7 ± 1.98 nM; in data set [3] (setting [7]), 496 ± 42 nM; in data set [3] (setting [8]), 496 nM; in data set [4] (setting [9]) it was 1120 nM; in data set [4] (setting [10]) it was 1120 ± 107 nM.

On to `CN1[C@H]2CC[C@@H]1[C@@H](c1nc3ccccc3s1)[C@@H](c1ccc(Cl)cc1)C2` [RTI-4229-202, 3β-(4-Chlorophenyl)-2β-(benzothiazol-2-yl)-tropane Hydrochloride], for which the “5-HT/DA Ratio” value in data set [1] was determined as 817. For the same compound, the “NE/DA Ratio” value in data set [1] amounted to 294. Also, the IC50 in data set [2] (setting [5]) was determined as 1.37 nM; in data set [2] (setting [6]) it was 1.37 ± 0.14 nM; in data set [3] (setting [7]) it was 403 ± 30 nM; in data set [3] (setting [8]), 403 nM; in data set [4] (setting [12]) it was 1120 nM; in data set [4] (setting [11]), 1120 ± 120 nM.

As for `Cc1ccc([C@H]2C[C@@H]3CC[C@H]([C@H]2c2nn[nH]n2)N3C)cc1` (as salt: hydrochloride) [RTI-157, 3β-(4-Methylphenyl)-tropane-2β-tetrazole Hydrochloride], the melting point was < 212 °C (dec.).

On to `CN1[C@H]2CC[C@@H]1[C@@H](c1nnc(-c3ccccc3)o1)[C@@H](c1ccc(Cl)cc1)C2` [RTI-4229-188, 3β-(4-Chlorophenyl)-2β-(5-phenyl-1,3,4-oxadiazol-2-yl)-tropane Hydrochloride], for which the “5-HT/DA Ratio” value in data set [1] came out at 262. Besides, the “NE/DA Ratio” value in data set [1] is reported as 73. Also, the IC50 in data set [2] (setting [5]) was determined as 12.6 nM; in data set [2] (setting [6]), 12.6 ± 1.03 nM; in data set [3] (setting [7]), 929 ± 88 nM; in data set [3] (setting [8]), 929 nM; in data set [4] (setting [9]), 3300 nM; in data set [4] (setting [11]), 3300 ± 196 nM.

On to `CN1[C@H]2CC[C@@H]1[C@@H](c1ncc(-c3ccccc3)s1)[C@@H](c1ccc(Cl)cc1)C2` [RTI-4229-219, 3β-(4-Chlorophenyl)-2β-(5-phenylthiazol-2-yl)-tropane Hydrochloride], for which, in data set [1], the “5-HT/DA Ratio” value amounted to 1811. Also, the IC50 in data set [2] (setting [5]) worked out at 5.71 nM; in data set [3] (setting [8]) it was 8560 nM; in data set [4] (setting [12]), 10300 nM; in data set [4] (setting [11]), 10300 nM.

Consider `CN1[C@H]2CC[C@@H]1[C@@H](c1cc(-c3ccccc3)no1)[C@@H](c1ccc(Cl)cc1)C2` (as salt: hydrochloride) [RTI-4229-177, 3β-(4-Chlorophenyl)-2β-(3-phenylisoxazol-5-yl)tropane Hydrochloride], for which the melting point stood at 287 °C.

`CN1C2CCC1C(c1nnc(-c3ccccc3)s1)C(c1ccc(Cl)cc1)C2` (stereo not drawn) (as salt: hydrochloride) [RTI-4229-200, 3β-(4-Chlorophenyl)-2β-(S-phenyl-1,3,4-thiadiazol-2-yl)-tropane Hydrochloride] came in with a melting point of 165 to 170 °C.

With `CN1[C@H]2CC[C@@H]1[C@@H](c1cc(-c3ccccc3)no1)[C@@H](c1ccc(Cl)cc1)C2` [RTI-4229-177, 3β-(4-Chlorophenyl)-2β-(3-phenylisoxazol-5-yl)tropane Hydrochloride], in data set [1], the “5-HT/DA Ratio” value was found to be 1889. In data set [1], the “NE/DA Ratio” value was determined as 393. The IC50 in data set [2] (setting [5]) came to 1.28 nM; in data set [2] (setting [6]), 1.28 ± 0.18 nM; in data set [3] (setting [7]) it was 504 ± 29 nM; in data set [3] (setting [8]) it was 504 nM; in data set [4] (setting [12]) it was 2420 nM; in data set [4] (setting [11]), 2420 ± 136 nM.

Turning to `Cc1ccc([C@H]2C[C@@H]3CC[C@H]([C@H]2c2nnc(C)o2)N3C)cc1` [RTI-4229-194, 3β-(4-Methylphenyl)-2β-(5-methyl-1,3,4-oxadiazol-2-yl)-tropane Hydrochloride], the “5-HT/DA Ratio” value in data set [1] stood at 1098. The “NE/DA Ratio” value in data set [1] is on record as 57. For the same compound, the IC50 worked out at 4.45 nM in data set [2] (setting [5]); 4.45 ± 0.12 nM in data set [2] (setting [6]); 253 ± 19 nM in data set [3] (setting [7]); 253 nM in data set [3] (setting [8]); 4880 nM in data set [4] (setting [12]); 4880 ± 155 nM in data set [4] (setting [11]).

As for `Cc1cc([C@H]2[C@@H](c3ccc(Cl)cc3)C[C@@H]3CC[C@H]2N3C)on1` (as salt: hydrochloride) [RTI-165, 3β-(4-Chlorophenyl)-2β-(3-methylisoxazol-5-yl)tropane Hydrochloride], the melting point was 235 °C (dec.).

For the compound `CN1C2CCC1C(c1nnc(-c3ccccc3)s1)C(c1ccc(Cl)cc1)C2` (stereo not drawn) [RTI-4229-200, 3β-(4-Chlorophenyl)-2β-(S-phenyl-1,3,4-thiadiazol-2-yl)-tropane Hydrochloride], the “5-HT/DA Ratio” value in data set [1] is 1203. For the same compound, the “NE/DA Ratio” value in data set [1] is listed as 271. Also, the IC50 in data set [2] (setting [5]) came out at 15.3 nM; in data set [2] (setting [6]) it was 15.3 ± 2.43 nM; in data set [3] (setting [7]), 4140 ± 466 nM; in data set [3] (setting [8]), 4140 nM; in data set [4] (setting [12]), 18400 nM; in data set [4] (setting [11]), 18400 nM.

Regarding `CN1[C@H]2CC[C@@H]1[C@@H](c1cc(-c3ccccc3)no1)[C@@H](c1ccc(I)cc1)C2` [RTI-4229-181, 3β-(4-Iodophenyl)-2β-(3-phenylisoxazol-5-yl)tropane Hydrochloride], the “5-HT/DA Ratio” value in data set [1] is recorded as 39. Further, the “NE/DA Ratio” value in data set [1] was determined as 337. For the same compound, the IC50 is 2.57 nM in data set [2] (setting [5]); 2.57 nM in data set [2] (setting [6]); 868 nM in data set [3] (setting [7]); 868 nM in data set [3] (setting [8]); 100 nM in data set [4] (setting [12]); 100 nM in data set [4] (setting [11]).
